Test results as given in patent US9969749B2, “Inhibitors of IRAK4 activity” (MERCK SHARP & DOHME CORP., priority 2014, dated 2018).

Biological target: IRAK4 (Homo sapiens (Human), UniProt Q9NWZ3)
Test: IRAK4 Kinase Assay (IMAP fluorescence polarization)
Type: biochemical
Details: 0.5 nM GST tagged IRAK4, 100 μM ATP, 100 nM fluorescent peptide substrate RP7030, 30 minutes at 25° C.
How it was run: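 GST-tagged IRAK4 (0.5 nM) phosphorylates 100 nM fluorescent peptide with 100 μM ATP in 10 mM Tris pH 7.2, 1 mM MgCl2, 1 mM DTT, 0.01% Tween 20 for 30 min at 25 °C. Phosphorylation read as IMAP nanoparticle-binding fluorescence polarization after stop reagent.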

Chain of IRAK4 (Q9NWZ3 whole entry): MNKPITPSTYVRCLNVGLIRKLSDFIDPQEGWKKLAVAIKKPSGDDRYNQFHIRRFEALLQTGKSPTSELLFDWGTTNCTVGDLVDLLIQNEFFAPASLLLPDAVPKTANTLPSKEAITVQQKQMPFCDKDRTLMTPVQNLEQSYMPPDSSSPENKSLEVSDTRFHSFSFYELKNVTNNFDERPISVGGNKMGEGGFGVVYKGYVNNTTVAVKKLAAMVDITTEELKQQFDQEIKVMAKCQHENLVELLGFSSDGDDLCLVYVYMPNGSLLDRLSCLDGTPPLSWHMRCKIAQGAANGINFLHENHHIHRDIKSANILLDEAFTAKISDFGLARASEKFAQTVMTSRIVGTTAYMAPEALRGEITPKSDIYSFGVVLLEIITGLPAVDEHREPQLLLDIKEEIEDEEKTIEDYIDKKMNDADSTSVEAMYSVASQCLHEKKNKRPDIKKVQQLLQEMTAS

**Q.** With `CNc1cc(-c2ccc3ncnc(N[C@H]4CC[C@H](N5CCO[C@@H](C)C5)CC4)c3c2)cnc1F` [Example 5-31, 6-[6-fluoro-5-(methylamino)pyridin-3-yl]-N-{trans-4-[(2S)-2-methylmorpholin-4-yl]cyclohexyl}quinazolin-4-amine] as the compound, how does the IC50 read?
**A.** Its IC50 is 1 nM.
